In brackets after ≈: the same amount, converted by molar mass. Like-named read-outs stand apart in the source and are kept apart here.
How the values were obtained:
LNCaP cells = assay: Cell viability (AlamarBlue), LNCaP prostate cancer cells; assay type: cell-based, human; conditions: Homo sapiens, LNCaP, 72 h, 72 hours of treatment
Method in brief: (§1)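 Viability is read by AlamarBlue fluorescence after cells, seeded 24 hours earlier, are treated for 72 hours with a concentration series of compound. Signals are expressed relative to no-treatment controls before EC50 fitting.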

[1] = Plasma and brain tissue levels after oral dose, brain tumor xenograft mice; assay type: in vivo, CrTac:NCr-Foxn1nu athymic nude mouse; conditions: CrTac:NCr-Foxn1nu athymic nude, single oral dose 100 mg/kg
Description: In another exemplary method, levels of Compound 19A were determined in plasma and brain tissue following administration. For these studies, a CrTac:NCr-Foxn1^nu athymic nude mouse strain was used as an acceptable mouse model. For these experiments, CrTac:NCr-Foxn1^nu athymic nude mouse received […] of tumors implanted into the brain tissues. Compound 19A was then administered to the mice orally as a homogenous suspension in DMSO: (PEG 400: PVP=95:5)=1:4. A single dose of 100 mg/kg of Compound 19A was administered in this manner. Concentrations of the Compound 19A in plasma and brain tissue (after extraction) were measured using HPLC-MS quantitation.
FIG. 51 and Table 8 illustrate increasing concentrations of Compound 19A in both the left, healthy brain tissue and the right experimental brain tissue containing tumor as well as in plasma over time.

MCF7 cells = assay: Cell viability (AlamarBlue), MCF7 breast cancer cells; assay type: cell-based; conditions: Homo sapiens, 72 hours of treatment
Description: (§2) In another exemplary method, half maximal effective concentration (EC50) was determined for some compounds and their isomers as disclosed herein in a variety of human cancer cell lines. In brief, cells from two prostate cancer cell lines (LNCaP, 22RV1), one glioblastoma cell line (U87), one breast cancer cell line (MCF7), a glioma cell line (LN18), a normal prostate cell line (RWPE1), and a glioblastoma cell line (T98G) were plated in a multi-well plate. After 24 hours, one of the compounds herein was added to the well at increasing concentrations. After 72 hours of treatment, cell viability was assessed using AlamrBlue® (Invitrogen) and fluorescence was read using the CLARIOstar Plus Multilabel Plate Reader (BMG Labtech). Samples were normalized to no treatment controls. EC50 values were determined using GraphPad Prism.

22RV1 cells = assay: Cell viability (AlamarBlue), 22RV1 prostate cancer cells; assay type: cell-based, human; conditions: 72 hours of treatment
Method in brief: as §1

U87 cells = assay: Cell viability (AlamarBlue), U87 glioblastoma cells; assay type: cell-based, human; conditions: 72 hours of treatment
Method in brief: as §1

RWPE1 cells = assay: Cell viability (AlamarBlue), RWPE1 normal prostate cells; assay type: cell-based, human; design: key to EC50 (μM) in RWPE1 cells: Inactive: less than 50% inhibition at the highest concentration tested at 50 μM; conditions: 72 hours of treatment, normal prostate cell line
Description: as §2

[2] = test system: LN18 glioblastoma cancer cells; assay: Combination with Temozolomide, Bliss synergy in LN18 cells; assay type: cell-based; conditions: Temozolomide 0 to 1000 uM, compound 0.625 to 10 uM
Description: Synergy was calculated with the Bliss independence model. Compounds were combined at concentrations of 0 to 1000 uM for Temozolomide and 0.625 to 10 uM for compounds 19 and 59.

[3] = test system: 22Rv1 prostate cancer cells; assay: Combination with Rabusertib, Bliss synergy in 22Rv1 cells; assay type: cell-based; conditions: Rabusertib 0 to 30 uM, compound 0.625 to 5 uM
Description: Synergy was calculated with the Bliss independence model. Compounds were combined at concentrations of 0 to 30 uM for Rabusertib and 0.625 to 5 uM for compounds 73 and 76.

LN18 cells = assay: Cell viability (AlamarBlue), LN18 glioma cells; assay type: cell-based; conditions: Homo sapiens, LN-18, 72 hours of treatment
Description: as §2

tubulin = assay: Tubulin polymerization assay; assay type: biochemical; conditions: 5 uM (FIG. 41A, 41C) or 1 uM (FIG. 41B)
Description: FIG. 41A-41C represent exemplary experiments illustrating inhibition of tubulin polymerization. FIG. 41A illustrates effects of compounds 19, 73, 86, 93 and 94 at 5 uM concentration. FIG. 41B illustrates effects of compounds 93, 94, 95 and 96 at 1 uM concentration.
FIG. 41C illustrates effects of compounds 73, 86, 87 and 88 at 5 uM concentration in accordance with certain embodiments of the present disclosure. Colchicine and vincristine are positive controls.
FIG. 42A-42B represent exemplary experiments illustrating inhibition of tubulin polymerization. FIG. 42A illustrates effects of compound 19 at 0.3, 1, 3 and 6 uM concentrations.
FIG. 42B illustrates effects of compound 73 at […] concentration in accordance with certain embodiments of the present disclosure. Colchicine and nocodazole are positive controls.
In another exemplary method, the effect of the compounds herein on tubulin polymerization was determined. FIG. 41A illustrates effects of compounds 19, 73, 86, 93 and 94 at 5 uM concentration, FIG. 41B illustrates effects of compounds 93, 94, 95 and 96 at 1 uM concentration, or FIG. 41C illustrates effects of compounds 87 and 88 at 5 uM concentration in accordance with certain embodiments of the present disclosure. Colchicine and vincristine are positive controls.
The dose dependent effect of compounds 19 and 73 on tubulin polymerization was also determined. FIG. 42A illustrates effects of compound 19 at 0.3, 1, 3 and 6 uM concentrations, and FIG. 42B illustrates effects of compound 73 at 0.1, 0.3, 1, 3 and 5 uM concentration in accordance with certain embodiments of the present disclosure. Colchicine and nocodazole are positive controls.

[4] = Kinetic solubility in aqueous PBS buffer (HPLC-MS); assay type: physicochemical; conditions: kinetic from dmso stock, DMSO stock mixed with aqueous PBS buffer, filtered, read-out: Kinetic Solubility
Method in brief: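 A concentrated DMSO stock was mixed with aqueous PBS buffer and filtered. The filtrate was quantified against an HPLC-MS calibration curve.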

T98G cells = assay: Cell viability (AlamarBlue), T98G glioblastoma cells; assay type: cell-based; conditions: Homo sapiens, 72 hours of treatment
Description: as §2

[5] = mouse, brain tissue (left, healthy), read-out: Brain Tissue Healthy, Left concentration
[6] = mouse, brain tissue (right, containing tumor), read-out: Brain Tissue Tumor, right concentration
[7] = plasma, tumor-bearing nude mouse, read-out: Plasma concentration

EC50 (U87 cells; Homo sapiens, U-87 MG, 72 h)	EC50 (LN18 cells)	solubility kinetic [4]	SMILES	effect on tubulin polymerization (tubulin)	other results
–	–	–	COC1CC(C(=O)NC(=O)Nc2ccc(Oc3ccc(Cl)cn3)c(C)c2)C1 (single isomer, unassigned) [Compound 19A, 1-{4-[(5-chloropyridin-2-yl)oxy]-3-methylphenyl}-3-(3-methoxycyclobutanecarbonyl) urea]	–	EC50 (LNCaP cells): 0.87 µM; concentration at 0.5 h [1, 5]: 767 ng/g; concentration at 1 h [1, 5]: 1230 ng/g; concentration at 6 h [1, 5]: 1460 ng/g; concentration at 0.5 h [1, 6]: 828 ng/g; concentration at 1 h [1, 6]: 1460 ng/g; concentration at 6 h [1, 6]: 1520 ng/g; concentration at 0.5 h [1, 7]: 973 ng/mL; concentration at 1 h [1, 7]: 1340 ng/mL; concentration at 6 h [1, 7]: 1510 ng/mL; EC50 (MCF7 cells): 2.8 µM; EC50 (22RV1 cells): 0.95 µM; EC50 (U87 cells): 2.2 µM; EC50 (μM) in RWPE1 cells (RWPE1 cells): Inactive
0.002 µM	–	–	COC1CC(C(=O)NC(=O)Nc2ccc(Oc3nc(C)c(C)s3)c(C)c2)C1 (stereo not shown) [Compound 59, N-((4-((4,5-dimethylthiazol-2-yl)oxy)-3-methylphenyl)carbamoyl)-3-methoxycyclobutane-1-carboxamide]	–	EC50 (LNCaP cells): 0.27 µM; EC50 (22RV1 cells; Homo sapiens, 22Rv1, 72 h): 0.08 µM; Bliss Synergy value, combination with Temozolomide ([2]; LN18 cells, Bliss independence model): 20.0; effect of combination with Temozolomide on cancer cell viability [2]: synergistic decrease in cancer cell viability
0.1 µM	–	–	COC1CC(C(=O)NC(=O)Nc2cc(C)c(Oc3ccc(Cl)cn3)c(F)c2)C1 (stereo not shown) [Compound 76, N-((4-((5-chloropyridin-2-yl)oxy)-3-fluoro-5-methylphenyl)carbamoyl)-3-methoxycyclobutane-1-carboxamide]	–	Bliss Synergy value, combination with Rabusertib ([3]; 22Rv1 cells, Bliss independence model): 15.3; effect of combination with Rabusertib on cancer cell viability [3]: synergistic decrease in cancer cell viability
0.16 µM	0.01 µM	–	COC12CC(C(=O)NC(=O)Nc3ccc(Oc4ccc(Cl)cn4)c(C)c3)(C1)C2 [Compound 84, N-((4-((5-chloropyridin-2-yl)oxy)-3-methylphenyl)carbamoyl)-3-methoxybicyclo[1.1.1]pentane-1-carboxamide]	–	–
0.26 µM	–	–	COC12CC(C(=O)NC(=O)Nc3ccc(Oc4ccccn4)c(C)c3)(C1)C2 [Compound 86, 3-methoxy-N-((3-methyl-4-(pyridin-2-yloxy)phenyl)carbamoyl)bicyclo[1.1.1]pentane-1-carboxamide]	significantly inhibit tubulin polymerization	–
1.2 µM	–	27.5 µM (≈ 10.1 µg/mL)	COC12CC(C(=O)NC(=O)Nc3ccc(Oc4ncccn4)c(C)c3)(C1)C2 [Compound 87, 3-methoxy-N-((3-methyl-4-(pyrimidin-2-yloxy)phenyl)carbamoyl)bicyclo[1.1.1]pentane-1-carboxamide]	significantly inhibit tubulin polymerization	–
1.45 µM	–	10.9 µM (≈ 4.21 µg/mL)	COC12CC(C(=O)NC(=O)Nc3ccc(Oc4ncc(F)cn4)c(C)c3)(C1)C2 [Compound 88, N-((4-((5-fluoropyrimidin-2-yl)oxy)-3-methylphenyl)carbamoyl)-3-methoxybicyclo[1.1.1]pentane-1-carboxamide]	significantly inhibit tubulin polymerization	–
0.065 µM	0.034 µM	2.17 µM (≈ 0.913 µg/mL)	COC12CC(C(=O)NC(=O)Nc3cc(C)c(Oc4ncc(Cl)cn4)c(F)c3)(C1)C2 [Compound 90, N-((4-((5-chloropyrimidin-2-yl)oxy)-3-fluoro-5-methylphenyl)carbamoyl)-3-methoxybicyclo[1.1.1]pentane-1-carboxamide]	–	EC50 (T98G cells): 0.0384 µM
0.63 µM	0.087 µM	–	COC12CC(C(=O)NC(=O)Nc3cc(C)c(Oc4ccc(F)cn4)c(F)c3)(C1)C2 [Compound 91, N-((3-fluoro-4-((5-fluoropyridin-2-yl)oxy)-5-methylphenyl)carbamoyl)-3-methoxybicyclo[1.1.1]pentane-1-carboxamide]	–	EC50 (T98G cells): 0.167 µM
0.045 µM	–	11.8 µM (≈ 4.19 µg/mL)	COC1CC(C(=O)NC(=O)Nc2ccc(C)c(Oc3ccccn3)c2)C1 (stereo not shown) [Compound 94, 3-methoxy-N-((4-methyl-3-(pyridin-2-yloxy)phenyl)carbamoyl)cyclobutane-1-carboxamide]	significantly inhibit tubulin polymerization	–
0.014 µM	–	7.2 µM (≈ 2.69 µg/mL)	COC1CC(C(=O)NC(=O)Nc2ccc(C)c(Oc3ccc(F)cn3)c2)C1 (stereo not shown) [Compound 95, N-((3-((5-fluoropyridin-2-yl)oxy)-4-methylphenyl)carbamoyl)-3-methoxycyclobutane-1-carboxamide]	significantly inhibit tubulin polymerization	–
0.035 µM	–	14.8 µM (≈ 5.27 µg/mL)	COC1CC(C(=O)NC(=O)Nc2ccc(C)c(Oc3ncccn3)c2)C1 (stereo not shown) [Compound 96, 3-methoxy-N-((4-methyl-3-(pyrimidin-2-yloxy)phenyl)carbamoyl)cyclobutane-1-carboxamide]	significantly inhibit tubulin polymerization	–
0.02 µM	0.011 µM	5.8 µM (≈ 2.14 µg/mL)	COC12CC(C(=O)NC(=O)Nc3ccc(C)c(Oc4ncccn4)c3)(C1)C2 [Compound 97, 3-methoxy-N-((4-methyl-3-(pyrimidin-2-yloxy)phenyl)carbamoyl)bicyclo[1.1.1]pentane-1-carboxamide]	–	EC50 (T98G cells): 0.026 µM
